Results on two compounds are retold here after patent US20130338106A1, “COMPOUNDS INHIBITING LEUCINE-RICH REPEAT KINASE ENZYME ACTIVITY” (priority 2011, published 2013).

As a reminder, the IC50 is the concentration at which inhibition is half-maximal. By inhibition is commonly meant the relative decrease from the control value, in per cent.

Format in all cases: biochemical
Assay [1] deals with T1, LRRK2 G2019S mutant kinase (Homo sapiens, UniProt Q5S007, G2019S).
T1 construct: GST; purchased Invitrogen PV4882
Nature of the assay: LRRK2 G2019S LanthaScreen TR-FRET kinase assay. The note with it: LRRK2 G2019S GST-tagged protein, 100 μM ATP, LRRKtide substrate; read-out: IC50 (potency). In a few lines:
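GST-tagged enzyme with 75 nM fluorescein-ERM (LRRKtide) substrate, 100 μM ATP, 2 mM DTT, 1% DMSO final; 1 h at room temperature. Stopped with EDTA and Tb-anti-pERM antibody, 30 min, then TR-FRET read (ex 340, em 520/495 nm); IC50 and maximal inhibition derived.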
On the technique in general: TR-FRET usually uses a lanthanide donor and a delayed reading to cut background.

The target of a further assay is T2, IKKB (Homo sapiens, UniProt O14920).
T2 construct: purchased Caliper LifeSciences
In words: ProfilerPro Kinase Selectivity, IKKB. Conditions: tested at 10 uM, read-out: percent inhibition of the kinase activity. The protocol:
(§1) Kinome selectivity profiling was performed using two example compounds according to the manufacturer's instructions using Caliper LifeSciences' ProfilerPro Kinase Selectivity Assay Kits. Compounds prepared in Examples 1 and 7 were tested at 10 uM and data were recorded using the Caliper LabChip® EZ Reader™. Each compounds' percent inhibition of the kinase activity measured in this manner is reported in the following lists.

Another assay has as its target T3, ITK (Homo sapiens, UniProt Q08881).
T3 construct: purchased Caliper LifeSciences
Nature of the assay: ProfilerPro Kinase Selectivity, ITK. Conditions: tested at 10 uM, read-out: percent inhibition of the kinase activity. The protocol: as §1

The next assay has as its target T4, AKT1 (Homo sapiens, UniProt P31749).
T4 construct: purchased Caliper LifeSciences
In words: ProfilerPro Kinase Selectivity, AKT1. Conditions: tested at 10 uM, read-out: percent inhibition of the kinase activity. How it is done:
as §1

Another assay deals with T5, PKCI (Homo sapiens, UniProt P41743).
T5 construct: purchased Caliper LifeSciences
In words: ProfilerPro Kinase Selectivity, PKCI. Conditions: tested at 10 uM, read-out: percent inhibition of the kinase activity. How it is done:
as §1

In a further assay the target is T6, PRKCE (Homo sapiens, UniProt Q02156).
T6 construct: purchased Caliper LifeSciences
In words: ProfilerPro Kinase Selectivity, PRKCE. Conditions: tested at 10 uM, read-out: percent inhibition of the kinase activity. How it is done:
as §1

The target in a further assay is T7, PDGFRA D842V (Homo sapiens, UniProt P16234, D842V).
T7 construct: purchased Caliper LifeSciences
In words: ProfilerPro Kinase Selectivity, PDGFRA D842V. The note with it: tested at 10 uM, read-out: percent inhibition of the kinase activity. The protocol: as §1

Another assay concerns the target T8, FLT4 (Homo sapiens, UniProt P35916).
T8 construct: purchased Caliper LifeSciences
Nature of the assay: ProfilerPro Kinase Selectivity, FLT4. The note with it: tested at 10 uM, read-out: percent inhibition of the kinase activity. The protocol: as §1

For a further assay, the target named is T9, PRKCH (Homo sapiens, UniProt P24723).
T9 construct: purchased Caliper LifeSciences
In words: ProfilerPro Kinase Selectivity, PRKCH. Conditions: tested at 10 uM, read-out: percent inhibition of the kinase activity. How it is done:
as §1

The target of the next assay is T10, MST2 (Homo sapiens, UniProt Q13188).
T10 construct: purchased Caliper LifeSciences
Nature of the assay: ProfilerPro Kinase Selectivity, MST2. The note with it: tested at 10 uM, read-out: percent inhibition of the kinase activity. How it is done: as §1

For another assay, the target named is T11, TSSK1 (Homo sapiens, UniProt Q9BXA7).
T11 construct: purchased Caliper LifeSciences
Nature of the assay: ProfilerPro Kinase Selectivity, TSSK1. Conditions: tested at 10 uM, read-out: percent inhibition of the kinase activity. How it is done: as §1

The target of another assay is T12, CAMK1D (Homo sapiens, UniProt Q8IU85).
T12 construct: purchased Caliper LifeSciences
In words: ProfilerPro Kinase Selectivity, CAMK1D. The note with it: tested at 10 uM, read-out: percent inhibition of the kinase activity. The protocol: as §1

A further assay concerns the target T13, CDK5/P25 (Homo sapiens, UniProt Q00535).
T13 construct: purchased Caliper LifeSciences
Nature of the assay: ProfilerPro Kinase Selectivity, CDK5/P25. The note with it: tested at 10 uM, read-out: percent inhibition of the kinase activity. The protocol:
as §1

T11 sequence (Q9BXA7 whole entry, species assumed): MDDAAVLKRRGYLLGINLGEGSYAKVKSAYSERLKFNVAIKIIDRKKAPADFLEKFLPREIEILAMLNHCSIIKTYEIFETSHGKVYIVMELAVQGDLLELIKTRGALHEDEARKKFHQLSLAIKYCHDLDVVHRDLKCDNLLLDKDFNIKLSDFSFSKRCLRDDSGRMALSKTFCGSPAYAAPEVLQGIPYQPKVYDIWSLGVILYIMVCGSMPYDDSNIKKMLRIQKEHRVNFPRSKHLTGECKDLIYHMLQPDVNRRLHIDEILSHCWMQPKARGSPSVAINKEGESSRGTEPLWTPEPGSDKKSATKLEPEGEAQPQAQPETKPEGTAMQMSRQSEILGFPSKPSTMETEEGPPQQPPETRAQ
T3 sequence (Q08881 whole entry, species assumed): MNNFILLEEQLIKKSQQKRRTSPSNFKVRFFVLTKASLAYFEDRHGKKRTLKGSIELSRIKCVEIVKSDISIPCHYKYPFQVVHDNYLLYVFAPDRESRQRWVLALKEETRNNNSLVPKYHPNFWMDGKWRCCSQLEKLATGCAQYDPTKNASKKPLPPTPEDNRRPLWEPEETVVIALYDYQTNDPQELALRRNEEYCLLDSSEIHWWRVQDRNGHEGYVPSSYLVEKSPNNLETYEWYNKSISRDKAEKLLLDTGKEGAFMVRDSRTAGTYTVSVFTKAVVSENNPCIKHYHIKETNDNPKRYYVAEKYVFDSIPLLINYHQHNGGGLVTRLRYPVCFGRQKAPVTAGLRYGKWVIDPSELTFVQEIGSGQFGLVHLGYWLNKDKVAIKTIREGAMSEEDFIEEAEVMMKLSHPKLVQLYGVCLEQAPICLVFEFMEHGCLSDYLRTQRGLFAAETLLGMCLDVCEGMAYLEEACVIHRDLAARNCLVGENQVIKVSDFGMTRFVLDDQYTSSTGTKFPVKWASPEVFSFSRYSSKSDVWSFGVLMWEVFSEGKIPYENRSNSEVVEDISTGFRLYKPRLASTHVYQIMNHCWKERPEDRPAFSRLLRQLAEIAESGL
T7 sequence (P16234 24-1089 D842V): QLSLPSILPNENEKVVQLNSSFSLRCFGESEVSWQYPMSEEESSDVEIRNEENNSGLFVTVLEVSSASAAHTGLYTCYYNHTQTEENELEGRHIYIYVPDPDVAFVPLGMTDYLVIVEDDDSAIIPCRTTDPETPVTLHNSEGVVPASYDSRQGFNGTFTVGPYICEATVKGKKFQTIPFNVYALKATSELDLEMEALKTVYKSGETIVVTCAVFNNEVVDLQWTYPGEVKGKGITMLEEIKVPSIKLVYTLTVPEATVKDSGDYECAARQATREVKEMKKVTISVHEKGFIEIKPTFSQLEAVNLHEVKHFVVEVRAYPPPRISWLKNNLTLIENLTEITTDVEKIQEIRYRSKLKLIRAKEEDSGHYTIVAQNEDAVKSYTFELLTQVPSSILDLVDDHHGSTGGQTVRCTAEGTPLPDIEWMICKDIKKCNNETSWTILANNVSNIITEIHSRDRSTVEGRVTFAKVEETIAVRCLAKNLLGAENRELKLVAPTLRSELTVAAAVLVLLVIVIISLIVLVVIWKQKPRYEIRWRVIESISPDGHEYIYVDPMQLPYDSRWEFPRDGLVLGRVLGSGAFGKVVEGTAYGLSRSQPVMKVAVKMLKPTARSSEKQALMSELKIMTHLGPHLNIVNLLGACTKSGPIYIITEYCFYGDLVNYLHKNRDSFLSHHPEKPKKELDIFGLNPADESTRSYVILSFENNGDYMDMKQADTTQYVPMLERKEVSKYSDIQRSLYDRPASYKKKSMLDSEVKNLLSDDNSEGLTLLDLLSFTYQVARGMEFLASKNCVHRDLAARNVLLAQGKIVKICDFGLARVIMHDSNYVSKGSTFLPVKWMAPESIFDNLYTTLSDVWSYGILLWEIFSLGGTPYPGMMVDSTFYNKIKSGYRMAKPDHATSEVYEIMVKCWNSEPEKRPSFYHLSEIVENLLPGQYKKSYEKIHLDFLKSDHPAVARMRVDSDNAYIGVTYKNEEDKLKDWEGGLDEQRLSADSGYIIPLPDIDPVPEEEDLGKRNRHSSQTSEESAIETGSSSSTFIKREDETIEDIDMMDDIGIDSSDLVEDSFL
T9 sequence (P24723 whole entry): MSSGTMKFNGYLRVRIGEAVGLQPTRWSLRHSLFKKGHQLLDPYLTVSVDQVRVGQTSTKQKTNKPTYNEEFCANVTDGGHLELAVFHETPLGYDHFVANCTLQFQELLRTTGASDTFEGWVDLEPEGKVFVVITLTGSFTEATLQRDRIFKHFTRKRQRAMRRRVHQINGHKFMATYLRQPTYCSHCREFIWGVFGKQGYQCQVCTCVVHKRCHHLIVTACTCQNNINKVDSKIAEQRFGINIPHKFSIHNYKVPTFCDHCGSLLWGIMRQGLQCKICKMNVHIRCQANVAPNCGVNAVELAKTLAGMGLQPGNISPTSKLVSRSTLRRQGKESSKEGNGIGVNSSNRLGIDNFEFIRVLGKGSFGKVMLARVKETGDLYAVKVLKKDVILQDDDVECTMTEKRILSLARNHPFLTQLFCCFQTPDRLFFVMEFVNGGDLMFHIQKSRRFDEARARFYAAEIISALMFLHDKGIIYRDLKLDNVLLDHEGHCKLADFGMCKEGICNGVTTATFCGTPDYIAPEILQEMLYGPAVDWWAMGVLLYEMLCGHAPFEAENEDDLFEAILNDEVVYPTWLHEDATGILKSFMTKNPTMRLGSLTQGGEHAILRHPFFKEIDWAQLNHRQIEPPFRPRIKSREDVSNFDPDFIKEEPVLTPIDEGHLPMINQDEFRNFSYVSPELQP
T12 sequence (Q8IU85 whole entry, species assumed): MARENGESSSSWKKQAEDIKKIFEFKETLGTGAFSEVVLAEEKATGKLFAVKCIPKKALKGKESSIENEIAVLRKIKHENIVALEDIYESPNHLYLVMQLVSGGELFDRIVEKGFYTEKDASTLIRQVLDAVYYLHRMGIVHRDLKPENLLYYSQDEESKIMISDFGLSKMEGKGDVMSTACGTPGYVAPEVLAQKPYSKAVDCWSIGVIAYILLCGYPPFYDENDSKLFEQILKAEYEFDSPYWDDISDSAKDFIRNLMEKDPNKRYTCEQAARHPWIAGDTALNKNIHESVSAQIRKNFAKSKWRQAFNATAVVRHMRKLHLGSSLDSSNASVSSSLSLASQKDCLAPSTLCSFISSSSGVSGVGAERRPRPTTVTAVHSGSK
T13 sequence (Q00535 whole entry, species assumed): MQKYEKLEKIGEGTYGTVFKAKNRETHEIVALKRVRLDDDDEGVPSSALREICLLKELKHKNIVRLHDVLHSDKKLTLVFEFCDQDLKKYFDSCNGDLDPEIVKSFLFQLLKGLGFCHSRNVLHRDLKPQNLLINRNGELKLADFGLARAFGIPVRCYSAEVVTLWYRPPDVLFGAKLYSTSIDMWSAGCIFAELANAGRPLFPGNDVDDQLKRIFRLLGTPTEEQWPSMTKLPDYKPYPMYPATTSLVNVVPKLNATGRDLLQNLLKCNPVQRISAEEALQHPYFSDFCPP
T13 sequence (Q15078 99-307 partner limits assumed, species assumed): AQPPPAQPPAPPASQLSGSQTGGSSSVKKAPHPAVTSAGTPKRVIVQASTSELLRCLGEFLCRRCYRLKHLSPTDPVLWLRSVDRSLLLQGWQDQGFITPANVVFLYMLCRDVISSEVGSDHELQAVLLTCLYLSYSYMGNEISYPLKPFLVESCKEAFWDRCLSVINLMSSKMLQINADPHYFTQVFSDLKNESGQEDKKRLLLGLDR
T2 sequence (O14920 whole entry, species assumed): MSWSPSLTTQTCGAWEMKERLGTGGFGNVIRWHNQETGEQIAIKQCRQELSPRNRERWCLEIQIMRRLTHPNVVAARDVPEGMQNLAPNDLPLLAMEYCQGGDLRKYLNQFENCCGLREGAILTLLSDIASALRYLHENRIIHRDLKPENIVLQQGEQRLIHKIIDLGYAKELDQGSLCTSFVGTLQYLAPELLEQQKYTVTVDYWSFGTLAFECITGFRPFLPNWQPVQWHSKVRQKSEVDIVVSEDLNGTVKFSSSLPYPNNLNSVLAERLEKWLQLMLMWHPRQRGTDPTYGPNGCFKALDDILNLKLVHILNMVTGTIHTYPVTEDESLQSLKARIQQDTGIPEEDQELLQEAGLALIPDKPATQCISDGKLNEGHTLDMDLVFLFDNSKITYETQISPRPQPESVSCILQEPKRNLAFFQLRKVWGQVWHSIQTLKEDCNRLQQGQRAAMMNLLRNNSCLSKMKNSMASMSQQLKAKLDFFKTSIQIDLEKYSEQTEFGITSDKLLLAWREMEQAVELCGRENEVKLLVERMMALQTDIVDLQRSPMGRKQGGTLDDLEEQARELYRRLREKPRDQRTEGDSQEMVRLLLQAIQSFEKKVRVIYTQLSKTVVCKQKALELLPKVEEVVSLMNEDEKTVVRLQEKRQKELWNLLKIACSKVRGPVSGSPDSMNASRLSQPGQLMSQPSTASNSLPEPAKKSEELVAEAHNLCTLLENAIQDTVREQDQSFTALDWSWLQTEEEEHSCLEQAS
T10 sequence (Q13188 whole entry, species assumed): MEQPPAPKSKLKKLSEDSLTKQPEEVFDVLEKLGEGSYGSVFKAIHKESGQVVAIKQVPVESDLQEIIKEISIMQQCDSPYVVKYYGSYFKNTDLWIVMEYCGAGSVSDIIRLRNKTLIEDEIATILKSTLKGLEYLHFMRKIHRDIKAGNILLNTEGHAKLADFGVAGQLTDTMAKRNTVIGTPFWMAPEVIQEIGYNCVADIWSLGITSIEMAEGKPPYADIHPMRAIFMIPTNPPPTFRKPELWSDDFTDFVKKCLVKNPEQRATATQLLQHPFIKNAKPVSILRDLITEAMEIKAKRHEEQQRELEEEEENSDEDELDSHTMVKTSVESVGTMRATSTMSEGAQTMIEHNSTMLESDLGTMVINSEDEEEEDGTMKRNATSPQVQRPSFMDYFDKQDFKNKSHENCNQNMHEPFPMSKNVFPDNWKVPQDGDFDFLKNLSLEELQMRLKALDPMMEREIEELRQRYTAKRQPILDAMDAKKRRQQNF

As for `CSc1sc(-c2cc[nH]n2)c2c1C(=O)CCC2` [Example 1, 3-(Methylsulfanyl)-1-(1H-pyrazol-3-yl)-6,7-dihydro-2-benzothiophen-4(5H)-one], the IC50 in [1] is 190 nM. Moreover, the inhibition at 10 µM at IKKB is 9.3%; at ITK, 4.8%; on AKT1, -3.2%; on PKCI, -14%; on PRKCE, -2.7%; at PDGFRA D842V, 33.9%. The inhibition at 10 µM is 22.5% at FLT4; 1.1% at PRKCH; 12.3% on MST2; 24% at TSSK1; -3.1% on CAMK1D; 9.5% at CDK5/P25.

For `CC1(C)CC(=O)c2c(SC3CCCC3)sc(-c3cc[nH]n3)c2C1` [Example 7, 3-(Cyclopentylsulfanyl)-6,6-dimethyl-1-(1H-pyrazol-3-yl)-6,7-dihydro-2-benzothiophen-4(5H)-one], in [1], the concentration for half-maximal inhibition (IC50) came to 93 nM. Also, the inhibition at 10 µM was 0.5% at IKKB; -2.9% on ITK; 0.1% at AKT1; -8.9% at PKCI; 3.9% on PRKCE; 3.7% at PDGFRA D842V. For the same compound, the inhibition at 10 µM on FLT4 is 2%; on PRKCH, 0.8%; at MST2, -2.3%; on TSSK1 it was 8.3%; on CAMK1D, 4%; on CDK5/P25 it was -11.7%.
